Drawing on PMC7585386 (ACS chemical biology, 2020), this text covers IC50 for 1 compound.

Structures are written as SMILES. pIC50: −log10 of the molar value.

This experiment deals with calcium-dependent protein kinase 1 (CDPK1, CDPK1^G; TGGT1_301440) (Toxoplasma gondii, UniProt Q9BJF5). In words: kinase assay with recombinant purified enzyme in excess calcium. It counts as biochemical.

Consider `Cc1cccc(Cc2nn(C(C)(C)C)c3ncnc(N)c23)c1` [3-MB, 3-MB-PP1], for which the negative-log IC50 (pIC50) is 7.10.
